The target of this test is T1, eIF2B decamer, eIF2B(αβδγε)2 (ISRIB pocket at the eIF2Bβ/eIF2Bδ interface) (Homo sapiens, UniProt P49770+Q9UI10).
T1 construct: gene EIF2B2; full eIF2B(αβδγε)2 decamer assembled from purified eIF2Bβγδε and eIF2Bα2; with eIF2Bβ (EIF2B2), with eIF2Bα, eIF2Bγ, eIF2Bε
The experiment in a line: fluorescence polarization competition with FAM-ISRIB; also FRET assembly of tetramers (EC50 […]), re-refined cryo-EM model. Type of test: binding. Background: Polarisation of emitted light reports the rotation of a fluorescent probe.

Take `O=C(COc1ccc(Cl)cc1)N[C@H]1CC[C@H](NC(=O)COc2ccc(Cl)cc2)CC1` [ISRIB]: the IC50 – broadly, the point on the concentration scale where inhibition reaches its midpoint – turned out to be 37 nM.

Values taken from publication PMC7990499, “eIF2B conformation and assembly state regulate the integrated stress response” (eLife, 2021).
